We go through four compounds from ChEMBL document CHEMBL5465560, “Selectivity Literature for EUbOPEN Chemogenomic Library” (2024).

Structures are written as SMILES. Bounds are passed on as bounds.

Assay [1] addresses T1, Phosphorylase b kinase gamma catalytic chain, liver/testis isoform (Homo sapiens) (UniProt P15735).
T1 sequence (whole entry): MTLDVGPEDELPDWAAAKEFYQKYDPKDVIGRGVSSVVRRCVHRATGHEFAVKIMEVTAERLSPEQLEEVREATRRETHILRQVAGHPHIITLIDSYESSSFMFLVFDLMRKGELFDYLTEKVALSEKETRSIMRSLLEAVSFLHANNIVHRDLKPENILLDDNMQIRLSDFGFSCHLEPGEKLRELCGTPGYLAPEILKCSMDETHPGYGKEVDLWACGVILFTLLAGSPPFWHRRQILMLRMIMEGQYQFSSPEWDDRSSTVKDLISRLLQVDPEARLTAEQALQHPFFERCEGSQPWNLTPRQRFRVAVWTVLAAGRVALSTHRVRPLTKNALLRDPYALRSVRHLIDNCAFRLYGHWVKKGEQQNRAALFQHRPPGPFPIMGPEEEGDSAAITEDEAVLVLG
In words: Selectivity interaction (SelectScreen profiling (Invitrogen)) EUB0000607a PHKG2. The following applies: at 2 µM.

Assay [2] concerns the target Phosphatidylinositol 3-kinase catalytic subunit type 3 (Homo sapiens, UniProt Q8NEB9). The assay can be described thus: Selectivity interaction (Kinase panel (Invitrogen)) EUB0000639a PIK3C3. To be noted: at 200 nM.
For another assay, the target named is Progesterone receptor (Homo sapiens, UniProt P06401). In words: Selectivity interaction (Progesteron receptor agonist/antagonist FRET assay, human recombinant) EUB0000877a PGR.
Assay [3] concerns the target T2, Ephrin type-A receptor 1 (Homo sapiens) (UniProt P21709).
T2 sequence (whole entry): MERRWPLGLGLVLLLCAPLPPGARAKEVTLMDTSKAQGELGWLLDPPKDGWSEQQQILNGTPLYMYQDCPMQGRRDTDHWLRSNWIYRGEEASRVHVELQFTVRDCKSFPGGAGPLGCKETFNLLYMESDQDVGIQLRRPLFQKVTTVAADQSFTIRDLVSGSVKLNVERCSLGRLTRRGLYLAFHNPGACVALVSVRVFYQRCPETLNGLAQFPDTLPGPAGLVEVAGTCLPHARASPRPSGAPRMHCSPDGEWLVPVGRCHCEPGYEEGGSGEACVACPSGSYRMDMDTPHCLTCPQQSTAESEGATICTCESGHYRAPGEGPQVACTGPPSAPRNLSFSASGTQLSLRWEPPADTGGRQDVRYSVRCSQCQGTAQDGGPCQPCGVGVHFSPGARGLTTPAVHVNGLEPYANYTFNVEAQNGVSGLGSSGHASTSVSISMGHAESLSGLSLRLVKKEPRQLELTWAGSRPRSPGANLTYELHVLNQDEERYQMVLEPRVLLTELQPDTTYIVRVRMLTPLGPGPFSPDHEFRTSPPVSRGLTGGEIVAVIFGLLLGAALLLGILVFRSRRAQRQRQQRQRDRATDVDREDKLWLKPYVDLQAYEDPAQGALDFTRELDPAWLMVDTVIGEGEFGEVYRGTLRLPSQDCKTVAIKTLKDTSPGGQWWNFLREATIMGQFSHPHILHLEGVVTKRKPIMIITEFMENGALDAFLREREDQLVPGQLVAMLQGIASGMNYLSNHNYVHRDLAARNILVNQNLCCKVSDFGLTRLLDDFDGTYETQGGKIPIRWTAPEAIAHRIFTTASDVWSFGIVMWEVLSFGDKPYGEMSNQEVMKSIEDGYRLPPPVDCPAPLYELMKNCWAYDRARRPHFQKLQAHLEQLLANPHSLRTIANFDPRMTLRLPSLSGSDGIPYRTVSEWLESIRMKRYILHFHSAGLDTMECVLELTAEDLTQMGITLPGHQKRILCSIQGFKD
The assay can be described thus: Selectivity interaction (KinomeScan (DiscoverX)) EUB0001619a EPHA1. The following applies: at 1 µM.

Assay [4] deals with T3, Mitogen-activated protein kinase kinase kinase 5 (Homo sapiens) (UniProt Q99683).
T3 sequence (whole entry): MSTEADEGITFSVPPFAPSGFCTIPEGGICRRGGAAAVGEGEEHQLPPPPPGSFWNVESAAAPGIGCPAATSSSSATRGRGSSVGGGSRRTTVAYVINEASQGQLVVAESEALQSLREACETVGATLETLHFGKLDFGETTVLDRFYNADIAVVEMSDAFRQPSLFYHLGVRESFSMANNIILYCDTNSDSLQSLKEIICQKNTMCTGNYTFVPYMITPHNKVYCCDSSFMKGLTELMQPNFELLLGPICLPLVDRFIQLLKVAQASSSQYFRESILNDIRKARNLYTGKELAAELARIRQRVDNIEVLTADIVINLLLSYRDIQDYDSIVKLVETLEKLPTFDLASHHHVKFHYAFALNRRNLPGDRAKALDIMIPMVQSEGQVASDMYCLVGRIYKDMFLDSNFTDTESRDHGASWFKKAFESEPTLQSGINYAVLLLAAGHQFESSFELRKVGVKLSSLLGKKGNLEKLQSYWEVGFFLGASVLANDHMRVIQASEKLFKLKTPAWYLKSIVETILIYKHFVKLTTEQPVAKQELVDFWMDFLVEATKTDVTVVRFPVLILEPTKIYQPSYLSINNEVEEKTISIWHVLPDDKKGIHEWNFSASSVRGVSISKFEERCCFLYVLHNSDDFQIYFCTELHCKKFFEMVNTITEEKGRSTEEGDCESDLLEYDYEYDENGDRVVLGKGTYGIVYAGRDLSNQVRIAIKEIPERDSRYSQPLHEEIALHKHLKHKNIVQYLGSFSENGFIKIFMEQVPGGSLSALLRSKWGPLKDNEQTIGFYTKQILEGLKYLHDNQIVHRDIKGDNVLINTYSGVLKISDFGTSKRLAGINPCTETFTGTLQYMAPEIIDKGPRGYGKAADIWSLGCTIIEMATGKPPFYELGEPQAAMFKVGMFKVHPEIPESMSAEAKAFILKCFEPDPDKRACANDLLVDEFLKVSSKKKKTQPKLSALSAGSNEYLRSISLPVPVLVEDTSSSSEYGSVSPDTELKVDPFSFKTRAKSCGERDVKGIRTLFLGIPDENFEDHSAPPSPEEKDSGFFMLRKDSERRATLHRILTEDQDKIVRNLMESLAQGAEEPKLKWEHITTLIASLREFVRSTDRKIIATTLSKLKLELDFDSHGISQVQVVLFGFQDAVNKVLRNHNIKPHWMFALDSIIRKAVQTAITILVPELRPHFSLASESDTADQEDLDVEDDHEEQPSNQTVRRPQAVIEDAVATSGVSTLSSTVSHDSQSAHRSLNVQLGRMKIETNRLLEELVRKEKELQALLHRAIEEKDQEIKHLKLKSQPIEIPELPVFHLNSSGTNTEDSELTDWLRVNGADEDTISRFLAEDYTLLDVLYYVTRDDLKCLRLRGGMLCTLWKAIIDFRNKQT
The assay can be described thus: Selectivity interaction (ActivX KiNativ screen (ex vivo kinase selectivity in human PBMCs)) EUB0001619a MAP3K5. Format: cell-based. To be noted: PBMC, at 1 µM.

Sequence of Progesterone receptor (P06401 whole entry): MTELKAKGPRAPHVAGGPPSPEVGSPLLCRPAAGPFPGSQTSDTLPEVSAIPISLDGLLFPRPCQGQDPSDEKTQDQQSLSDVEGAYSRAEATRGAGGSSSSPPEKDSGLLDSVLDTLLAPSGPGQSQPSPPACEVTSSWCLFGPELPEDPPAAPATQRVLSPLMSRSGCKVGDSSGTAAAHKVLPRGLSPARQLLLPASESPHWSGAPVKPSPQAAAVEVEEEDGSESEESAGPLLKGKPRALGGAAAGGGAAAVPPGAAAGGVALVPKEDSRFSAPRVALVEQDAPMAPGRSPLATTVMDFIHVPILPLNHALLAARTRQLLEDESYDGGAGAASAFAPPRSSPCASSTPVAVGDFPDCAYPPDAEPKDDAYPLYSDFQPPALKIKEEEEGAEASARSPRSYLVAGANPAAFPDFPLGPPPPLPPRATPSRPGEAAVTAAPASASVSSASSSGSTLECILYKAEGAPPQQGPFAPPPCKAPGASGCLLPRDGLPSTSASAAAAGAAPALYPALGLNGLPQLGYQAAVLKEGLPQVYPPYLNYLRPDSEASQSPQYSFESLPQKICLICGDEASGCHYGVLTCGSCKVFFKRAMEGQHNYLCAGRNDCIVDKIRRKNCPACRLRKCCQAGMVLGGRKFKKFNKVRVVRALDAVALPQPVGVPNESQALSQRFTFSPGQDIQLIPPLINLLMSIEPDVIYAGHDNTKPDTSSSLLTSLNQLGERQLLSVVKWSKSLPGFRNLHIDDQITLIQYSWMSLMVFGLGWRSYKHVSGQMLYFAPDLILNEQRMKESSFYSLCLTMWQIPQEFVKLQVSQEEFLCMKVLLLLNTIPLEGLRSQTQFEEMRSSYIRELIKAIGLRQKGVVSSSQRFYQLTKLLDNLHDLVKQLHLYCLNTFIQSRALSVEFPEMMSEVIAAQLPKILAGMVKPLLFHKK
Sequence of Phosphatidylinositol 3-kinase catalytic subunit type 3 (Q8NEB9 whole entry): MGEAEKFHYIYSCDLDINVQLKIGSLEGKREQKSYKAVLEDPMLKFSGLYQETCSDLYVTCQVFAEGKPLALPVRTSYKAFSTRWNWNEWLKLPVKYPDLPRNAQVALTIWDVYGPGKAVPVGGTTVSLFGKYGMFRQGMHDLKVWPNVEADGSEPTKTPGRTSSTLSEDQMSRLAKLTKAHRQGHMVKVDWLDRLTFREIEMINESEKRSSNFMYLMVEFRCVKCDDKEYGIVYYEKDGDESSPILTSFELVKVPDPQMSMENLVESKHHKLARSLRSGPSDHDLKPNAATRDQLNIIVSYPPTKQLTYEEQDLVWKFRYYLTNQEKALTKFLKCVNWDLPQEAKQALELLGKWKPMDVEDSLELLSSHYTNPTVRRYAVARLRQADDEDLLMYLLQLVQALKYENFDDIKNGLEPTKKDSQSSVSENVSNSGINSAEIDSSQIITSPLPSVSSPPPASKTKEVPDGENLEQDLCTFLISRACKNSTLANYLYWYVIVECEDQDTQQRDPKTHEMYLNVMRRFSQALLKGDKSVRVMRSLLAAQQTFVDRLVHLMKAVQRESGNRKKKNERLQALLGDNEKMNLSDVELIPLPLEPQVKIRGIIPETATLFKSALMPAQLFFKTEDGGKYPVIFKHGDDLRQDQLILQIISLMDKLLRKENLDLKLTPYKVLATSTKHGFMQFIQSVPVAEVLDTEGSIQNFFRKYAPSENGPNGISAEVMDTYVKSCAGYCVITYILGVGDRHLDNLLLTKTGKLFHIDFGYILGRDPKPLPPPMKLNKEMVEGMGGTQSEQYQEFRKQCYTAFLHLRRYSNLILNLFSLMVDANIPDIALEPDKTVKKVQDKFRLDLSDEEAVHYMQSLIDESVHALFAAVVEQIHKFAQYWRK

For `CNC(=O)Nc1ccc(-c2nc(N3CC4CCC(C3)O4)c3cnn(C4CCC5(CC4)OCCO5)c3n2)cc1`, the % of inhibition in assay [1] was found to be 12%.

Turning to `CC[C@@H]1[C@H](F)C(=O)N[C@@H]1COc1nccc2cc(C(N)=O)c(OC)cc12` [ZIMLOVISERTIB], the % of inhibition in assay [2] is -5.2%.

A word on the IC50: it is the concentration that gives 50% inhibition. For `CCC(=O)N1CC[C@H](Nc2ncnc3c2CN(c2cnc(OC)c(C(F)(F)F)c2)CC3)C1` [LENIOLISIB], the IC50 on Progesterone receptor was > 30 µM.

For `N#Cc1cccc(-c2c[nH]c3ncnc(N4CCOCC4)c23)c1`, the % of control in assay [3] worked out at 100%. The % of inhibition in assay [4] amounted to 21%.
